From patent publication US8383655B2, “Modulators of pharmacokinetic properties of therapeutics” (Gilead Sciences, Inc., priority 2006, dated 2013)

Test system: HIV-1 strain IIIB
Test: Anti-HIV-1 cell culture assay (EC50), XTT cytopathic effect
Type: cell-based
Conditions: Human immunodeficiency virus 1, 120 h; MT2 cells infected with wild-type HIV-1 IIIB, 5 days; read-out: protease inhibition activity represented by HIV EC50
Method: The assay is based on quantification of the HIV-1-associated cytopathic effect by a colorimetric detection of the viability of virus-infected cells in the presence or absence of tested inhibitors. HIV-1-induced cell death was determined using a metabolic substrate 2,3-bis(2-methoxy-4-nitro-5-sulfophenyl)-2H-tetrazolium-5-carboxanilide (XTT) which is converted only by intact cells into a product with specific absorption characteristics as described by Weislow O S, Kiser R, Fine D L, Bader J, Shoemaker R H and Boyd M R, J. Natl. Cancer Inst.
The infected cells in culture media were distributed into a 96-well plate (20,000 cells in 100 μl/well), and incubated in the presence of a set of solutions containing 5-fold serial dilutions of the tested inhibitor (100 μl/well) for 5 days at 37° C. […]
To determine the antiviral activity of the tested inhibitors, a substrate XTT solution (6 mL per assay plate) at a concentration of 2 mg/mL in a phosphate-buffered saline pH 7.4 was heated in water-bath for 5 min at 55° C. before 50 μl of N-methylphenazonium methasulfate (5 μg/mL) was added per 6 mL of XTT solution. […] Viability, as determined by the amount of XTT metabolites produced, was quantified spectrophotometrically by the absorbance at 450 nm (with subtraction of the background absorbance at 650 nm).

SMILES: CC(C)c1nc(CN(C)C(=O)N[C@@H](CCN2CCOCC2)C(=O)N[C@H](CC[C@H](Cc2ccccc2)NC(=O)OCc2cncs2)Cc2ccccc2)cs1 [Example S]
- EC50: > 20 µM
